Experimental data published in US20260317328A1, “SMALL MOLECULES FOR ADOPTIVE T-CELL THERAPY (ACT) THROUGH ACTIVATION OF THE mTOR SIGNALLING PATHWAY, PROCESS FOR PREPARATION THEREOF” (COUNCIL OF SCIENTIFIC & INDUSTRIAL RESEARCH, priority 2023, published 2026).
One block for each compound: values may come before it.

Tests used:
CD8^+ T cells [1] = assay: Initial small molecule screening: intracellular cytokine staining of CD8+ T cells activated with each small molecule; format: cell-based, mouse
Source text: To select the small molecule capable of inducing IFN-γ production in CD8^+ T cells, […] CD3^+ sorted naïve T cells were activated with each small molecule for 72 hrs followed by an intracellular cytokine staining.
CD3^+ T cells were isolated from human peripheral blood by density-gradient (Ficoll gradient) centrifugation followed by a negative selection using Dynabeads Untouched Human T Cells Kit, resulting in a typically >90% pure CD3^+ T cell population.
(§1) Purified naïve CD3^+ T cells were activated either in presence of Comp 19 ([…]) or vehicle (DMSO) with plate-bound anti-CD3 ([…]) and anti-CD28 ([…]) for 72 h in RPMI-1640 medium containing 10% FBS, 50 µM R-ME, 50 U/mL penicillin and […] streptomycin and 100 IUmL^−1 rIL-2.
(§2) Measurement of cytokine production: To assess IFN-γ and TNF-α secretion by intracellular cytokine staining, cells (0.2×10^6) were treated for 4 hours with restimulation cocktail containing phorbolmyristate acetate (50 ng ml^−1) and ionomycin (500 ng ml^−1), brefeldin A (to block anterograde protein transport). Then cells were stained for surface markers and simultaneously labeled with Live/Dead Yellow Fluorescent Dye for 20 min at 4° C. Next cells were washed with PBS, fixed for 20 min at 4° C. with fixation/permeabilization solution, washed with permeabilization buffer, finally stained for 30 min with anti-IFN-γ and anti-TNF-α mAb in dark at 4° C., washed with PBS and analyzed.

CD8^+ T cells [2] = assay: Glucose uptake assay (2NBDG) in activated CD8+ T cells; format: cell-based; details: naïve T cells activated in presence of compound; 2NBDG (FIG. 2A)
Source text: (§3) Distinct T cell states require specific metabolic programs compatible to their functional demands. The transition between various T cell states is accompanied by active rewiring of cellular metabolism and epigenetic landscape. Oxidative phosphorylation is the main biochemical pathway that drives metabolism of naïve T cell. Upon activation, naïve T cells rapidly reprogram their metabolic networks to comply with the demands of robust clonal expansion and epigenetic remodeling. So, TCR activation and co-stimulation initiate a set of signaling cascades that collectively license a T cell to exit quiescence. Stimulation of the TCR promotes signaling through the ERK/MAPK pathways and calcium flux, activation of the PI3K-AKT-mTOR axis which subsequently resulting in T cell activation. This conversion to an activated effector T cell is marked by enhanced glucose uptake, engagement of aerobic glycolysis, increased oxidative phosphorylation. So, we assessed glucose uptake level by activated CD8^+ T cells using fluorescent labeled deoxy-glucose analogue, 2NBDG. […]
Glucose uptake assay: Glucose uptake by activated T cells was evaluated using fluorescent labeled deoxy-glucose analogue, 2NBDG. […]

CD8^+ T cells [3] = assay: Effector cytokine (IFN-γ, TNF-α) production by activated CD8+ T cells; format: cell-based; details: naïve T cells activated in presence of compound (FIG. 2B-E)
Source text: as §3, with “Stimulation of the TCR promotes signaling through the ERK/MAPK pathways and calcium flux, activation of the PI3K-AKT-mTOR axis which subsequently resulting in T cell activation. This conversion to an activated effector T cell is marked by enhanced glucose uptake, engagement of aerobic glycolysis, increased oxidative phosphorylation.” left out
as §2, with “Then cells were stained for surface markers and simultaneously labeled with Live/Dead Yellow Fluorescent Dye for 20 min at 4° C.” left out

mTORC1 = mTORC1 activity in CD8+ T cells: pS6 and p4EBP1 levels (flow cytometry, western blot); format: cell-based
Source text: Several transcription factors and signaling pathways coordinately support and regulate the metabolic shifting of naïve T cell after activation. Downstream of co-stimulation and PI3K-AKT signaling, mammalian target of Rapamycin (mTOR) kinase pathway helps in integrating multiple signals, plays a significant role for cell cycle entry and coordinates early anabolic changes that occur upon T cell activation mTOR complex 1 (mTORC1) promote aerobic glycolysis and support effector T cell proliferation, growth, and cytokine production. Translation repressor protein 4E-BP1 inhibits cap-dependent translation by binding to the translation initiation factor eIF4E. Phosphorylation of 4E-BP1 by mTORC1 disrupts this interaction and results in activation of cap-dependent translation. On the contrary, phosphorylation of S6 ribosomal protein correlates with an increase in translation of mRNA transcripts that contain an oligopyrimidine tract in their 5′ untranslated regions. Activation of mTORC1 increases protein translation via direct phosphorylation of 4E-BP1 and p70S6 kinase. Since Comp-19 was proposed as mTORC1 activator, next we sought to check expression level ofpS6 and p4EBP1 level inside CD8^+ T cells activated in presence/absence of Comp-19. […] CD8^+ T cells treated with Comp-19 (FIG. 3A-C).
as §1
pS6 Staining: Intracellular phospho ribosomal protein S6 (pS6) were stained using Transcription factor Phospho Buffer set. Single cell suspension was prepared and cells were washed with 1×PBS. […] Finally, cells were washed, dissolved in PBS and analysed by flow cytometry.
Cell lysates from 4×10^6 cells per condition were prepared in RIPA buffer containing protease inhibitor cocktail. Protein concentrations were determined with a serial dilution standard curve of Bradford assay. […]

EL4-OVA tumors = assay: Adoptive transfer of OT1 T cells into mice bearing EL4-OVA tumors; format: in vivo, mouse
Method: Given the functional fitness of Comp-19 treated CD8^+ T cells in vitro, we, next, sought to determine their antitumor potential upon adoptive transfer into mice bearingEL4-OVA tumors.
EL-4.OVA tumor cells (1×10^6) or B16-F10 melanoma (0.5×10^6 cells) were injected subcutaneously into the left flank of 7-10 weeks old C57BL/6 mice. After 9 days of tumor establishment, ex vivo activated OT-1 T cells at 0.5×10^6 cells/mouse were adoptively transferred intravenously into tumor-bearing recipients.

[4] = system: Human naïve CD8^+ T cells; assay: EC50 for IFNγ production in human naïve CD8+ T cells; format: cell-based; details: 72 hrs, doses 500 pM to 50 μM, N=3 for each dose
Method: Human naïve CD8^+ T cells were sorted from PBMC and activated in presence of Comp 19 in the different doses (500 pM, 1 nM, 100 nM, 500 nM, 1 μM, 5 μM, 10 μM, 50 μM). After 72 hrs, activated CD8+ T cells were restimulated and stained for IFNγ production. Percent of CD8+ T cell producing IFNγ in the previously mentioned doses of Comp 19 was normalized to a vehicle control (DMSO) treated group. The optimum dosage of Comp 19 for inducing effector cytokine (IFNγ) production from CD8^+ T cells is 10 μM. […] (N=3 for each dose of Comp 19).
Human peripheral blood mononuclear cells (PBMC) were obtained from fully anonymized whole blood bags (age & sex related information were not provided) collected from healthy volunteer blood donors at NRS Medical College & Hospital, Kolkata, India. […]
as §2, with “Then cells were stained for surface markers and simultaneously labeled with Live/Dead Yellow Fluorescent Dye for 20 min at 4° C.” left out

[5] = Lipophilicity assay (n-octanol / phosphate buffer); format: physicochemical; details: pH 7.4, 1-octanol/10 mM sodium phosphate buffer, room temperature; criteria: <0 low, 0-1 moderate, >2 high lipophilicity
Method: 1.56 g NaH2PO4O·2H2O was dissolved in 0.5 L water in a 1 L beaker. After adjusting pH to 7.4 using NaOH solution, the volume was made up to 1 L. Equal volumes of sodium phosphate buffer (10 mM, pH 7.4) and n-octanol were added to a separation funnel and mixed thoroughly by shaking and inverting the funnel several times. The two layers were allowed to separate for overnight and then dispensed in two separate glass bottles. 10 mM stock solution was prepared in 100% DMSO and stored at 4° C. 495 μL of organic phase (1-octanol) was added to each well of a 2 mL deep well plate, followed by 495 μL of buffer and 10 μL of test substance was added. The plate was incubated for 3 hr at room temperature on a plate shaker at 500 rpm. After incubation, the samples were allowed to equilibrate for 20 min and then centrifuged at 4000 rpm for 30 min for complete phase separation and analysed by LC-UV.
Log D=Log (area of octanol/area of buffer)

Plasma stability assay = format: in vitro ADME; details: human, 37° C., 120 mins
Method: 1 mM Stock of test compound was prepared from 10 mM initial stock solution of compounds by diluting 10 μL of 10 mM stock with 90 μL of DMSO. Then 10 μL of 1 mM stock was diluted with 90 μL of DMSO to give 100 μM concentration. The frozen plasma was thawed at room temperature and centrifuged at 1400 rpm at 4° C., for 15 minutes. Approximately 90% of the clear supernatant fraction was transferred to a separate tube and was used for the assay. Final working stock of 1 μM was prepared by diluting 3 μL of 100 μM with 297 μL of plasma. Plasma containing the test compound was incubated for 120 mins at 37° C. in shaker with 500 rpm. 50 μL of aliquot of sample at 0, 15, 30, 60 and 120 minutes were precipitated with 150 μL of acetonitrile containing internal standard and centrifuged at 4000 rpm at 4° C. for 20 minutes. 120 μL of supernatant was diluted with 120 μL of water and analyzed by LC-MS/MS.

[6] = Metabolic stability using human liver microsomes (HLM); format: in vitro ADME; details: pH 7.4, read-out: % QH (Well stirred model)
Method: 1 mM stock solution of test compound was prepared in DMSO and diluted with Acetonitrile:Water (1:1) to get a 100 μM working concentration. 100 mL of Milli Q water was added to K2HPO4 (1.398 g) and KH2PO4 (0.27 g) to get final pH 7.4 solution of potassium phosphate buffer. […] The above mixture was pre incubated for 15 minutes at 37° C. After pre incubation, 32.5 μL of the mixture was added to 17.5 μL of buffer, this was incubated for 60 minutes at 37° C. [60 min Without Cofactor (NADPH)]. 16.25 μL of the pre incubated mixture and 8.75 μL of cofactor was added to 150 μL of acetonitrile containing internal standard [0 min Sample]. 62 μL of cofactor was added to remaining pre incubation mixture [Incubation mixture]. 25 μL of incubation mixture at 0, 5, 15, 30, 60 min and 60 min without cofactor were precipitated with 150 μL of acetonitrile containing internal standard, vortexed and centrifuged at 4000 rpm at 4° C. for 20 minutes. 120 μL of supernatant was diluted with 120 μL of water and analyzed by LC-MS/MS [sample preparation].

[7] = 10 μM, 72 hrs, compared to vehicle control/other small molecules treated group (FIG. 1A-B)
[8] = OT1 T cells (0.5×10^6 cells/mouse) activated in presence of 10 μM ml^−1 compound
[9] = inhibitory receptor (FIG. 4F,4G)

Compound: COc1ccc(-c2nc3c(NS(=O)(=O)c4ccc(C)cc4)ncnc3n2C)cc1 [Compound 19, N-(8-(4-methoxyphenyl)-9-methyl-9H-purin-6-yl)-4-methylbenzenesulfonamide]
IFN-γ production from CD8^+ T cells (CD8^+ T cells [1]; [7]): highest | TNF-α production from CD8^+ T cells (CD8^+ T cells [1]; [7]): highest | improving effector cytokine production from CD8^+ T cells (ranking among the small molecules) (CD8^+ T cells [1]; 72 hrs activation): most promising | glucose uptake (CD8^+ T cells [2]): promoted glucose uptake | IFN-γ production level from CD8^+ T cell (CD8^+ T cells [3]): significant increase | TNF-α production level from CD8^+ T cell (CD8^+ T cells [3]): significant increase | mTORC1 activation (mTORC1; conclusion from pS6 and 4EBP1 results in CD8^+ T cells): potent mTOR-Cl activator | 4EBP1 (p4EBP1) expression (mTORC1; downstream substrate of mTORC1 (FIG. 3D)): significant high expression | pS6 level inside CD8^+ T cells (mTORC1; flow cytometry and western blot (FIG. 3A-C)): marked increase | persistence of CD8+Vβ5.1+ OT1 T cells (EL4-OVA tumors; FIG. 4B): improved persistence | survival of tumor-bearing mice (EL4-OVA tumors; [8]): markedly enhanced the survival | tumor growth control (EL4-OVA tumors; [8]): could efficiently control tumor growth | CD38 expression on CD8+Vβ5.1+ OT1 T cells (EL4-OVA tumors; [9]): reduced expression | PD1 expression on CD8+Vβ5.1+ OT1 T cells (EL4-OVA tumors; [9]): reduced expression | TIM3 expression on CD8+Vβ5.1+ OT1 T cells (EL4-OVA tumors; [9]): reduced expression | number of circulating CD8^+Vβ5.1^+ T cells (EL4-OVA tumors; tumor-bearing host, vs mice that received DMSO treated cells): higher number | optimum dosage for inducing effector cytokine (IFNγ) production from CD8^+ T cells [4]: 10 µM | EC50 ([4]; Homo sapiens, T-cell, normalized to vehicle (DMSO)): 4.09 µM | logD [5]: 0.96 | remaining at 2 h, 1 µM (Plasma stability assay): 85.8% | hepatic extraction ratio [6]: 0.0077

logD [5]: 4.32 | remaining at 2 h, 1 µM (Plasma stability assay): 3.9% | hepatic extraction ratio [6]: 0.318
Compound: CCc1ccc(S(=O)(=O)Nc2ncnc3c2nc(-c2ccc(OC)cc2)n3C)cc1 [Compound 22, 4-ethyl-N-(8-(4-methoxyphenyl)-9-methyl-9H-purin-6-yl)benzenesulfonamide]

logD [5]: -0.34
Compound: COCCc1ccc(OCC(O)CNC(C)C)cc1 (centres unmarked) [Metroprolol, reference compound]

remaining at 2 h, 1 µM (Plasma stability assay): 0.33%
Compound: CC(C)[N+](C)(CCOC(=O)C1c2ccccc2Oc2ccccc21)C(C)C [Propantheline, reference compound]
